Laboratory results reported in patent publication EP0018189B1 (priority 1979, dated 1980).

Columns and labels:
[1] = tested on: poliomyelitis vaccines (Types 1, 2 and 3): Type 3; format: in vivo; details: guinea pigs
[2] = tested on: poliomyelitis vaccines (Types 1, 2 and 3): Type 2; format: in vivo; details: guinea pigs
[3] = tested on: poliomyelitis vaccines (Types 1, 2 and 3): Type 1; set-up: species or system guinea pigs; details: guinea pig, in vivo
[4] = undiluted, 1/10 and 1/100 dilutions, determined by comparison of ED50

Structure (SMILES): CCCCCCCCCCCCCCCCCCOC(=O)[C@@H](N)Cc1ccc(O)cc1 [octadecyl tyrosine]
- factor more potent than the vaccine containing aluminum phosphate, type 3 [1]: 1.4
- Potency Relative to Unadsorbed Vaccine, Type 3 [1, 4]: 8.5
- factor more potent than the vaccine containing aluminum phosphate, type 2 [2]: 1.9
- Potency Relative to Unadsorbed Vaccine, Type 2 [2, 4]: 3.2
- Potency Relative to Unadsorbed Vaccine, Type 1 [3]: 13.8
- factor more potent than the vaccine containing aluminum phosphate, type 1 [3]: 5.2
